Laboratory results: US20260076959A1, “COMBINATION PRODUCT, SALT, AND USE THEREOF IN TREATING NEURODEGENERATIVE DISEASES OR DISORDERS” (SHANGHAI HENLIUS BIOTECH, INC., priority 2023, published 2026)
Structures can show the parent of a compound that is named as a salt.

Legend:
SH-sy5y cells = assay: Cell viability of hydrogen peroxide-induced SH-sy5y cells (CellTiter-Glo luminescence); assay type: cell-based
Protocol: Neuroblastoma SH-sy5y cells (purchased from the Cell Bank of the Chinese Academy of Sciences) were cultured in a complete medium (DMEM+10% FBS+1% PS) in a cell incubator at 37° C. with 5% CO2. The experiment was divided into 11 groups in total: • Group 1 (control): SH-sy5y cells • Group 2 (model): SH-sy5y cells+hydrogen peroxide • Group 3: SH-sy5y cells+hydrogen peroxide+compound Y (100 μM) • Group 4: SH-sy5y cells+hydrogen peroxide+compound T (100 μM) • Group 5: SH-sy5y cells+hydrogen peroxide+compound B (100 μM) • Group 6: SH-sy5y cells+hydrogen peroxide+compound N (100 μM) • Group 7: SH-sy5y cells+hydrogen peroxide+compound combination Y+T (100 μM+100 μM) • Group 8: SH-sy5y cells+hydrogen peroxide+compound combination B+N (100 μM+100 μM) • Group 9: SH-sy5y cells+hydrogen peroxide+compound combination PB+T (500 μM+200 μM) • Group 10: SH-sy5y cells+hydrogen peroxide+YT salt (100 μM) • Group 11: SH-sy5y cells+DMSO
Neuroblastoma SH-sy5y cells were plated at 1×10^4 cells/well in a complete medium (DMEM+10% FBS+1% PS) and cultured in a cell incubator at 37° C. with 5% CO2 for 24 h, followed by the addition of the corresponding compounds. After 24 h of incubation, hydrogen peroxide was added to stimulate the cells for 1 h, with the final concentration of hydrogen peroxide being 350 µM. Subsequently, […] CellTiter-Glo® (CTG) reagent was added, and the mixture was shaken for 2 min. Then, the luminescence signal values were measured, which could characterize the cell viability. […] Pharmacology/toxicologyNDAreviewandevaluation, Application number: 2166600Orig1s000, Food and Drug Administration. doi: pink.pharmaintelligence.informa.com/-/media/supporting-documents/pink-sheet/2022/11/relyvrio_nonclinical.pdf?rev=d27109bf35c040d4a78f73144d132917&hash=414BB5B4473A21ECE0231375EB1C0341).

CD4-positive T cells = assay: Proliferation of CD4-positive T cells from anti-CD3/CD28-stimulated PBMCs (CellTrace, flow cytometry); assay type: cell-based, human; details: 72 h; for proliferation of CD4-positive T cells compared to control group (DMSO): 100 μM (Y+T: 100 μM+100 μM)
From the text: (§1) It has been reported that in ALS, Th cells are described as major players in inflammation and disease progression. […] Similarly, CD8 T cell infiltration was also observed in the spinal cord and brain of ALS patients. (Elise Liu, et al., Neuroinflammation in Amyotrophic Lateral Sclerosis and Frontotemporal Dementia and the Interest of Induced Pluripotent Stem Cells to Study Immune Cells Interactions With Neurons, Front Mol Neurosci. 2021 Dec. 14; 14:767041. doi: 10.3389/fnmol.2021.767041.) To observe the inhibitory effects of the compounds, the compound combination, or the salt of the present disclosure on immune cell infiltration or proliferation, their effects in inhibiting the proliferation of CD4-positive and CD8-positive T cells were further analyzed. First, a certain amount of human peripheral blood mononuclear cells (PBMCs) were incubated with 5 μM CellTrace cell proliferation assay reagent in an incubator at 37° C. with 5% CO2 in the dark for 20 min. Then, 1.5×10^5 CellTrace-stained PBMCs were seeded in a 96-well U-bottom plate and treated with Anti-CD3/CD28 antibody-coupled magnetic beads at a ratio of 1:1 (cell count:magnetic bead count) to induce differentiation into T cells. Subsequently, various compounds at corresponding concentrations (compound Y: 100 μM; compound T: 100 μM; compound combination Y+T: 100 µM compound Y+100 μM compound T; YT salt: 100 μM; control group: […] (100 μM)) were co-incubated with the above-treated cells in the incubator at 37° C. with 5% CO2 for 72 h, followed by analysis by a flow cytometer. Specifically, the test cells were first treated with a Live/dead dye (633 nm, 1:1000 dilution) at 4° C. for 30 min to distinguish dead cells from live cells. […] After appropriate washing, the above-stained cells were analyzed by a flow cytometer at different wavelengths. […] Proliferation of CD4-positive and CD8-positive T cells was determined by the fluorescence of CellTrace dye.

CD8-positive T cells = assay: Proliferation of CD8-positive T cells from anti-CD3/CD28-stimulated PBMCs (CellTrace, flow cytometry); assay type: cell-based, human; details: 72 h; for proliferation of CD8-positive T cells compared to control group (DMSO): 100 μM (Y+T: 100 μM+100 μM)
From the text: as §1

[1] = system: SOD1G93A mutant ALS model mice; assay: Onset of disease, severe conditions and survival in SOD1G93A ALS mouse model; assay type: in vivo
Protocol: The therapeutic effect of the YT salt on the survival status of ALS animals was evaluated in SOD1^G93A transgenic mice (B6SJL-Tg (SOD1*G93A) 1/cyagen). Sixteen female and fourteen male B6SJL-Tg(SOD1*G93A) 1/cyagen mice were selected and randomly divided into 2 groups (7 males+8 females/group) according to sex and body weight, namely a model group (control) and a YT salt group (treatment group). The YT salt was intragastrically administered at a dose of 496 mg/kg once daily. The administration began on day 66 of mouse age. Body weight changes were monitored, animal status and symptom severity were evaluated, and individual survival periods were recorded. Statistics on the severity of animal symptoms included the time to the first onset of disease and the time to the first observation of severe conditions in the animals. […] In this study, “severe condition” was defined as a state in which the animal was completely paralyzed and unable to move freely, but still alive; if the animal died directly without going through a “paralysis” stage after the onset of disease, the death was considered the occurrence of a severe condition. The survival period was statistically defined as the survival time of the animal at the endpoint of the test (day 130). The hazard ratio was calculated using the Log-rank test method.

[2] = system: MPTP-induced Parkinson's disease mouse model; assay: MPTP-induced Parkinson's disease mouse model (grip strength, rotarod, TH immunohistochemistry); assay type: in vivo, C57BL/6 mice; details: for reduction in TH-positive cells in the substantia nigra region: P<0.0001
Protocol: Sixty male C57BL/6 mice were selected and randomly divided into 5 groups (12 mice/group), namely a sham surgery group (normal control), a model group (model control), an L-DOPA group (positive drug control, 40 mg/kg), a low-dose YT salt treatment group (167.5 mg/kg), and a high-dose YT salt treatment group (248 mg/kg). The mice were intraperitoneally injected with MPTP at a dose of 30 mg/kg for 5 consecutive days for modeling. The YT salt was intragastrically administered twice daily (with an interval of 7-8 h between two administrations) for 13 consecutive days. L-DOPA was administered twice daily (with an interval of 7-8 h between two administrations) for 8 consecutive days. The amelioration effect of the YT salt on the motor function of the MPTP-induced Parkinson's disease mice was evaluated by behavioral indicators such as a grip strength test and a rotarod test. Histopathological examination was performed on the animals to evaluate the protective effect of the YT salt on dopaminergic neurons in the MPTP-induced Parkinson's disease mice.

[3] = system: 6-OHDA-induced Parkinson's disease rats; assay: 6-OHDA-induced Parkinson's disease rat model (grid walking test); assay type: in vivo, SD rats; details: 248 mg/kg intragastrically once daily, 6 weeks; P<0.05 vs model
Protocol: Forty-eight male SD rats were selected and divided into 4 groups (12 rats/group), namely a sham surgery group (normal control), a model group (model control), an istradefylline group (istradefylline, as a positive drug control, 10 mg/kg), and a YT salt treatment group (248 mg/kg). The Parkinson's disease model was established by injecting […] of 6-OHDA into the right intracranial medial forebrain bundle (MFB) of rats. After modeling, istradefylline and the YT salt were administered intragastrically once daily for 6 consecutive weeks, and a grid walking test was performed at the end of the 6-week administration period to evaluate the disease progression in the rats.

ALS = details: in vivo; cited from earlier work
[4] = 496 mg/kg intragastrically once daily

Compound: COc1cc2cc3[n+](cc2cc1OC)CCc1cc2c(cc1-3)OCO2 [YT salt]
- effects in improving cell viability compared to compound T, compound B, combination B+N and combination PB+T (SH-sy5y cells; Y+T 100 μM+100 μM, YT salt 100 μM, hydrogen peroxide-induced): significantly superior effects in improving cell viability
- proliferation of CD4-positive T cells compared to control group (DMSO) (CD4-positive T cells): significantly inhibited
- inhibitory effect on proliferation of CD4-positive T cells compared to compound T and compound U (UDCA) (CD4-positive T cells; 100 μM): significantly superior
- proliferation of CD8-positive T cells compared to control group (DMSO) (CD8-positive T cells): significantly inhibited
- inhibitory effect on proliferation of CD8-positive T cells compared to compound T and compound U (UDCA) (CD8-positive T cells; 100 μM): significantly superior
- median onset time [1, 4]: 109 days
- median time to severe condition occurrence [1, 4]: 117 days
- onset time (earliest onset in group) [1, 4]: > 90 days of mouse age
- time of first onset vs model group (Log-rank) ([1]; 496 mg/kg intragastrically once daily from day 66 of age, P=0.0802): no statistical difference
- hazard ratio for disease onset ([1]; 496 mg/kg intragastrically once daily, Log-rank): 0.5716
- survival period vs model group ([1]; 496 mg/kg intragastrically once daily, P<0.01): significantly superior
- incidence of severe conditions vs model group ([1]; 496 mg/kg intragastrically once daily, P<0.05): significantly lower
- median onset time longer than in the model group ([1]; 496 mg/kg intragastrically once daily, model group 102 days): 7 days
- death hazard ratio ([1]; 496 mg/kg, Log-rank): 0.3212
- hazard ratio for severe conditions ([1]; 496 mg/kg, Log-rank): 0.45
- endpoint survival rate ([1]; 496 mg/kg, endpoint day 130): 53.333%
- median survival period ([1]; 496 mg/kg, endpoint day 130): the number of dead individuals had not exceeded half by the endpoint of the test
- endpoint severe condition rate ([1]; 496 mg/kg, endpoint of the test day 130): 66.667%
- hazard ratio for disease onset, times lower than model group ([1]; 496 mg/kg, model group 1.749): about 3 times
- hazard ratio for severe conditions, times lower than model group ([1]; 496 mg/kg, model group 2.222): about 5 times
- death hazard ratio, times lower than model group ([1]; 496 mg/kg, model group 3.113): ~10 times
- median time to severe condition occurrence longer than in the model control group ([1]; 496 mg/kg, model group 109 days): about 8 days
- apoptosis of dopaminergic neurons in the substantia nigra region and striatal region ([2]; YT salt 167.5 mg/kg twice daily): significantly inhibit
- MPTP-induced decrease in animal grip strength ([2]; YT salt high dose 248 mg/kg intragastrically twice daily, 13 days, P<0.01 vs model): significantly ameliorate
- reduction in TH-positive cells in the substantia nigra region ([2]; YT salt high dose 248 mg/kg twice daily): significant inhibition
- loss of TH-positive neurons (TH immunohistochemical staining in the striatum) ([2]; YT salt high dose 248 mg/kg twice daily, P<0.01): significant inhibition
- MPTP-induced reduction in time on the rod (rotarod test) ([2]; YT salt high dose 248 mg/kg twice daily, P<0.05 vs model): significant amelioration effect
- reduction in TH-positive cells in the substantia nigra region ([2]; YT salt low dose 167.5 mg/kg twice daily): significant inhibition
- foot fault rate in grid walking test [3]: significant reduction
- number of foot faults in grid walking test [3]: significant reduction

Compound: COc1cc2cc3[n+](cc2cc1OC)CCc1cc2c(cc1-3)OCO2.[Cl-] [compound Y]
- effect in improving cell viability compared to compound B monotherapy (SH-sy5y cells; 100 μM each, hydrogen peroxide-induced): superior
- effect in improving cell viability compared to the model (SH-sy5y cells; 100 μM, 24 h incubation, then hydrogen peroxide 1 h, P<0.0001 vs model): excellent effect in improving cell viability
- proliferation of CD4-positive T cells compared to control group (DMSO) (CD4-positive T cells): significantly inhibited
- proliferation of CD8-positive T cells compared to control group (DMSO) (CD8-positive T cells): significantly inhibited

Compound: N[C@@H](Cc1ccc(O)c(O)c1)C(=O)O [L-DOPA, reference compound]
- MPTP-induced decrease in animal grip strength ([2]; L-DOPA 40 mg/kg twice daily, 8 days, P<0.001 vs model): significantly ameliorate
- reduction in TH-positive cells in the substantia nigra region ([2]; L-DOPA 40 mg/kg twice daily): significant inhibition

Compound: CC1=NN(c2ccccc2)C(=O)C1 [Evadarone]
- revised ALS functional rating scale (ALSFRS-R) score (ALS): improves
